We go through three compounds from PMC7318243, “Computationally Empowered Workflow Identifies Novel Covalent Allosteric Binders for KRAS^G12C” (Chemmedchem, 2020).

One assay addresses T1, KRAS^G12C (Homo sapiens, UniProt P01116, G12C).
T1 construct: KRASG12C (aa 1–169, G12C) were produced for the biochemical assay; made in house
The assay is described as follows: Biochemical assay: KRAS^G12C activation by SOS1CAT (HTRF, fluorescent GTP loading). The following applies: 180 min pre-incubation with KRAS before addition of SOS1. On the procedure:
(§1) One of the most synthetically accessible compounds, 1,6‐naphthyridin‐5(6H)‐one (1), was prepared (Table 1; Scheme S1). Structurally close to 1, isoquinolin‐1(2H)‐one 2 derivatives were also considered for the exploration of structure‐activity relationships (SAR). To measure the proportion of inhibitor reacting with Cys12 of the KRAS^G12C mutant, the bound/unbound protein ratio was quantified by mass spectrometry (MS). Then, the inhibition potency of these compounds towards KRAS^G12C was evaluated in biochemical assays measuring the activation of GDP‐bound KRAS^G12C or KRAS^WT by SOS1.19 […]
(§2) 3.3 Biochemical activity assays
(§3) Measurement of (i) KRASG12C activation by SOS1CAT and (ii) wild-type KRAS activation by SOS1CAT was performed following the previously described protocol, [19] with a pre-incubation time of the test compound with KRAS proteins extended to 180 min before addi tion of SOS1.
(§4) This assay quantifies SOS1 CAT mediated loading of KRAS G12C–GDP with a fluorescent GTP analogue. Detection of successful loading was achieved by measuring resonance energy transfer from anti-GST-terbium (FRET donor) bound to GST -KRASG12C to the loaded fluorescent GTP analogue (FRET acceptor). The fluorescent GTP analogue EDA –GTP–DY-647P1 [2'/3'-O-(2-aminoethyl-carbamoyl)guanosine-5'-triphosphate labelled with DY-647P1 (Dyomics GmbH, Germany)] was synthesized by Jena Bioscience (Germany) a nd supplied as a 1 mM aqueous solution. A KRASG12C working solution was prepared in assay buffer [10 mM HEPES pH 7.4 (AppliChem), 150 mM NaCl (Sigma), 5 mM MgCl2 (Sigma), 1 mM DTT (Thermo Fisher), 0.05% BSA Fraction V pH 7.0 (ICN Biomedicals), 0.0025% (v/v) Igepal (Sigma)] containing 100 nM GST-KRASG12C and 2 nM anti-GST-terbium (Cisbio, France). A SOS1 CAT working solution was prepared in an assay buffer containing 20 nM SOS1CAT and 200 nM EDA–GTP–DY-647P1. An inhibitor control solution was prepared in an assay buffer containing 200 nM EDA–GTP–DY-647P1 without […]
SOS1CAT. All steps of the assay were performed at 20 °C. A volume of 2.5 µL of the KRASG12C working solution was added to all wells of the test plate using a Multidrop dispenser (Thermo LabSystems). After 180 min, 2.5 µL of the SOS1CAT working solution was added to all wells, except for the inhibitor control solution wells. After 30 min incubation, HTRF was measured. […]
(§5) SYNAPT G2-S quadrupole time-of-flight mass spectrometer connected to a Waters nanoAcquity UPLC system. Samples were loaded on a 2.1 x 5 mm mass prep C4 guard column (Waters) and desalted with a short grad ient (3 min) of increasing concentrations of acetonitrile at a flow rate of 100 µL/min. Spectra were analyzed by using MassLynx v4.1 software and deconvoluted with the MaxEnt1 algorithm. Percent of conversion was determined by the ratio of signal intensiti es of apo-KRAS and KRAS + inhibitor.
(In TR-FRET formats the signal depends on donor and acceptor labels being close together.)

A further assay deals with T2, KRAS^WT (Homo sapiens, UniProt P01116).
T2 construct: The proteins KRASWT (aa 1–169, wild type), SOS1CAT (aa 564–); made in house
T2 sequence (P01116 1-169 isoform P01116-2): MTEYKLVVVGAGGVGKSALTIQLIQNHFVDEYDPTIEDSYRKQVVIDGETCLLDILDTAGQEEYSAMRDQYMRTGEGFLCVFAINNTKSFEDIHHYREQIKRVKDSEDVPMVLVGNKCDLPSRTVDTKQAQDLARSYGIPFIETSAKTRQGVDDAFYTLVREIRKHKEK
The assay is described as follows: Biochemical assay: KRAS^WT activation by SOS1CAT (HTRF, fluorescent GTP loading). The following applies: 180 min pre-incubation with KRAS before addition of SOS1. On the procedure: as §1, §2, §3, §4
SOS1CAT. All steps of the assay were performed at 20 °C. A volume of 2.5 µL of the KRASG12C working solution was added to all wells of the test plate using a Multidrop dispenser (Thermo LabSystems). After 180 min, 2.5 µL of the SOS1CAT working solution was added to all wells, except for the inhibitor control solution wells. After 30 min incubation, HTRF was measured.
In the KRASWT activation by SOS1cat assay, human SOS1CAT mediated loading of GST-KRASWT– GDP was quantified with a fluorescent GTP analogue. The assay was performed as described above for the KRASG12C activation. […]
as §5

T1 sequence (P01116 1-169 isoform P01116-2 G12C): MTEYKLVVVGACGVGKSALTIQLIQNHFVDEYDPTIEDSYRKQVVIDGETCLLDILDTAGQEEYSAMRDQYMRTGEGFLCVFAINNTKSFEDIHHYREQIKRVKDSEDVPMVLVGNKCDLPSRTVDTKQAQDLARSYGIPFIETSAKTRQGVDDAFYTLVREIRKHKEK

For orientation: IC50 means the concentration at which inhibition is half-maximal. High values mean a need for much substance, low ones inhibition by little substance. With `C=CC(=O)N1CCC(c2cc3ncc(-c4c(O)cccc4F)cc3c(=O)[nH]2)C1` (stereo not drawn) [Compound 1, 3-(2-Fluoro-6-hydroxyphenyl)-7-[1-(prop-2-enoyl)pyrrolidin-3-yl]-1,6-naphthyridin-5(6H)-one], the IC50 was 2.8 µM at KRAS^G12C and > 20 µM against KRAS^WT.

With `C=CC(=O)N1CCC(c2cc3ccc(-c4c(O)cccc4F)cc3c(=O)[nH]2)C1` (stereo not drawn) [Compound 2, 7-(2-Fluoro-6-hydroxyphenyl)-3-[1-(prop-2-enoyl)pyrrolidin-3-yl]isoquinolin-1(2H)-one], the IC50 on KRAS^G12C is 4.7 µM; on KRAS^WT, > 20 µM.

For the compound `C=CC(=O)N1CCC(c2cc3cnc(-c4c(O)cccc4F)cc3c(=O)[nH]2)C1` (stereo not drawn) [Compound 13, 7-(2-Fluoro-6-hydroxyphenyl)-3-[1-(prop-2-enoyl)pyrrolidin-3-yl]-2,6-naphthyridin-1(2H)-one], the IC50 is 1.3 µM at KRAS^G12C and > 20 µM at KRAS^WT.
